Reference: ChEMBL document CHEMBL4808201, “Novel triazole-sulfonamide bearing pyrimidine moieties with carbonic anhydrase inhibitory action: Design, synthesis, computational and enzyme inhibition studies” (Bioorg Med Chem Lett, 2021)

Molecular target: Carbonic anhydrase 9 (Homo sapiens, UniProt Q16790)
Experiment: Inhibition of human CA9 measured by stopped flow CO2 hydrase assay

NS(=O)(=O)c1ccc(-n2cc(COc3ccnc(N4CCN(C(c5ccccc5)c5ccccc5)CC4)n3)nn2)cc1
Ki: 192 nM

CN1CCN(c2nccc(OCc3cn(-c4ccc(S(N)(=O)=O)cc4)nn3)n2)CC1
Ki: 30.4 nM

Cc1cc(OCc2cn(-c3ccc(S(N)(=O)=O)cc3)nn2)nc(N2CCN(C(c3ccccc3)c3ccccc3)CC2)n1
Ki: 21.4 nM

Cc1cc(OCc2cn(-c3ccc(S(N)(=O)=O)cc3)nn2)nc(N2CCN(Cc3ccccc3)CC2)n1
Ki: 41.1 nM

Cc1cc(OCc2cn(-c3ccc(S(N)(=O)=O)cc3)nn2)nc(-c2ncccc2C#N)n1
Ki: 32 nM

NS(=O)(=O)c1ccc(-n2cc(COc3ccnc(N4CCN(Cc5ccccc5)CC4)n3)nn2)cc1
Ki: 39.1 nM

COc1ccc(-c2nc(C)cc(OCc3cn(-c4ccc(S(N)(=O)=O)cc4)nn3)n2)cc1
Ki: 29.7 nM

NS(=O)(=O)c1ccc(-n2cc(COc3ccnc(N4CCN(Cc5ccc(Cl)cc5)CC4)n3)nn2)cc1
Ki: 32.2 nM

COc1ccccc1N1CCN(c2nc(C)cc(OCc3cn(-c4ccc(S(N)(=O)=O)cc4)nn3)n2)CC1
Ki: 36.3 nM

NS(=O)(=O)c1ccc(-n2cc(COc3ccnc(N4CCOCC4)n3)nn2)cc1
Ki: 42.5 nM

Cc1cc(OCc2cn(-c3ccc(S(N)(=O)=O)cc3)nn2)nc(N2CCOCC2)n1
Ki: 30.2 nM

NS(=O)(=O)c1ccc(-n2cc(COc3ccnc(N4CCN(c5ccc(F)cc5)CC4)n3)nn2)cc1
Ki: 25.8 nM

CCOC(=O)N1CCN(c2nc(C)cc(OCc3cn(-c4ccc(S(N)(=O)=O)cc4)nn3)n2)CC1
Ki: 33.4 nM

NS(=O)(=O)c1ccc(-n2cc(COc3ccnc(N4CCN(c5ccccc5)CC4)n3)nn2)cc1
Ki: 26.3 nM

Cc1cc(OCc2cn(-c3ccc(S(N)(=O)=O)cc3)nn2)nc(N2CCN(c3ccc(F)cc3)CC2)n1
Ki: 466 nM

Cc1cc(OCc2cn(-c3ccc(S(N)(=O)=O)cc3)nn2)nc(N2CCN(C)CC2)n1
Ki: 24.1 nM

CCN1CCN(c2nccc(OCc3cn(-c4ccc(S(N)(=O)=O)cc4)nn3)n2)CC1
Ki: 22.7 nM

Cc1cc(OCc2cn(-c3ccc(S(N)(=O)=O)cc3)nn2)nc(N2CCN(c3ccccn3)CC2)n1
Ki: 9.1 nM

NS(=O)(=O)c1ccc(-n2cc(COc3ccnc(N4CCCCC4)n3)nn2)cc1
Ki: 41.3 nM

COc1ccc(-c2nccc(OCc3cn(-c4ccc(S(N)(=O)=O)cc4)nn3)n2)cc1
Ki: 51.4 nM

COc1ccccc1N1CCN(c2nccc(OCc3cn(-c4ccc(S(N)(=O)=O)cc4)nn3)n2)CC1
Ki: 44.7 nM

Cc1cc(OCc2cn(-c3ccc(S(N)(=O)=O)cc3)nn2)nc(N2CCN(Cc3ccc(Cl)cc3)CC2)n1
Ki: 2.9 nM

CCOC(=O)N1CCN(c2nccc(OCc3cn(-c4ccc(S(N)(=O)=O)cc4)nn3)n2)CC1
Ki: 1.6 nM

NS(=O)(=O)c1ccc(-n2cc(COc3ccnc(N4CCN(c5ccccn5)CC4)n3)nn2)cc1
Ki: 16.8 nM

Cc1cc(OCc2cn(-c3ccc(S(N)(=O)=O)cc3)nn2)nc(N2CCN(c3ccccc3)CC2)n1
Ki: 32.8 nM

N#Cc1cccnc1-c1nccc(OCc2cn(-c3ccc(S(N)(=O)=O)cc3)nn2)n1
Ki: 155 nM

Cc1cc(OCc2cn(-c3ccc(S(N)(=O)=O)cc3)nn2)nc(N2CCCCC2)n1
Ki: 35.8 nM

CCN1CCN(c2nc(C)cc(OCc3cn(-c4ccc(S(N)(=O)=O)cc4)nn3)n2)CC1
Ki: 16.1 nM
